Measurements reported in US11180474B2 (BRISTOL-MYERS SQUIBB COMPANY, priority 2016, dated 2021).

How the values were obtained:
human TLR9 = biological target: T1, human TLR9 (Homo sapiens, UniProt Q9NR96); assay: TLR9 inhibition reporter assay (HEK-Blue cells, SEAP reporter, ODN2006 stimulation); format: cell-based; conditions: HEK-Blue cells overexpressing human TLR9, ODN2006 5 nM
T1 construct: host or cells: HEK-Blue cells
T1 sequence (Q9NR96 26-1032): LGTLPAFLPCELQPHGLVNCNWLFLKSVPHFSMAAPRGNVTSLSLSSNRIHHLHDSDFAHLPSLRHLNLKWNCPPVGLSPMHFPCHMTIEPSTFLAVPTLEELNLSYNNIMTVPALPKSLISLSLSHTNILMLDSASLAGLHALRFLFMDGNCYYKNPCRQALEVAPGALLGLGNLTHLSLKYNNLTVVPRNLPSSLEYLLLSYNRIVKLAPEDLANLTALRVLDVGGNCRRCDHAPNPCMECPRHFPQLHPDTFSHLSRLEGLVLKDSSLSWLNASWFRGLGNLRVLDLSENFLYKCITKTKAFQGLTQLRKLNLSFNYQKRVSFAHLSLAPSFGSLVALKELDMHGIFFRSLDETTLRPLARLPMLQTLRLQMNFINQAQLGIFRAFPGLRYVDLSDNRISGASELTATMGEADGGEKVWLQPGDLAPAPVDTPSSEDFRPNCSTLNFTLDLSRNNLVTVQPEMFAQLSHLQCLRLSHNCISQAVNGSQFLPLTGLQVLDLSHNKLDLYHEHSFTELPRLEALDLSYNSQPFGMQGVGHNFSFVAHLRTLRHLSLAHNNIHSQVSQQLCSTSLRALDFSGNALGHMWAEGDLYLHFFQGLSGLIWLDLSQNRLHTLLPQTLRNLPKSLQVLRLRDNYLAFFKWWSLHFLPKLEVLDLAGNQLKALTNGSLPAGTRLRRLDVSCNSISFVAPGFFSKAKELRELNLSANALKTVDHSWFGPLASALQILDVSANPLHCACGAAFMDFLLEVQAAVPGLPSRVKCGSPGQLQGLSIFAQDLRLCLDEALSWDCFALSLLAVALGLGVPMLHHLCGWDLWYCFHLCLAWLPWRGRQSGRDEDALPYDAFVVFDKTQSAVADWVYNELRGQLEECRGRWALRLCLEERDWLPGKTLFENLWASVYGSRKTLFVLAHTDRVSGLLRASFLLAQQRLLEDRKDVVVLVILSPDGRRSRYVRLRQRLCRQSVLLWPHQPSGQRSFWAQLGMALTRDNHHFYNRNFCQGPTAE
Summary of the method: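 Dose–response from 0.05 nM to 50 μM was run in HEK-Blue human TLR7, TLR8 and TLR9 reporter cells. After 30 min at room temperature with compound, ligand was added (TLR7 gardiquimod 7.5 μM; TLR8 R848 15.9 μM; TLR9 ODN2006 5 nM) and SEAP measured next day, at 22 h.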

human TLR7 = biological target: T2, human TLR7 (Homo sapiens, UniProt Q9NYK1); assay: TLR7 inhibition reporter assay (HEK-Blue cells, SEAP reporter, gardiquimod stimulation); format: cell-based; conditions: HEK-Blue cells overexpressing human TLR7, gardiquimod 7.5 μM
T2 construct: host or cells: HEK-Blue cells
T2 sequence (Q9NYK1 27-1049): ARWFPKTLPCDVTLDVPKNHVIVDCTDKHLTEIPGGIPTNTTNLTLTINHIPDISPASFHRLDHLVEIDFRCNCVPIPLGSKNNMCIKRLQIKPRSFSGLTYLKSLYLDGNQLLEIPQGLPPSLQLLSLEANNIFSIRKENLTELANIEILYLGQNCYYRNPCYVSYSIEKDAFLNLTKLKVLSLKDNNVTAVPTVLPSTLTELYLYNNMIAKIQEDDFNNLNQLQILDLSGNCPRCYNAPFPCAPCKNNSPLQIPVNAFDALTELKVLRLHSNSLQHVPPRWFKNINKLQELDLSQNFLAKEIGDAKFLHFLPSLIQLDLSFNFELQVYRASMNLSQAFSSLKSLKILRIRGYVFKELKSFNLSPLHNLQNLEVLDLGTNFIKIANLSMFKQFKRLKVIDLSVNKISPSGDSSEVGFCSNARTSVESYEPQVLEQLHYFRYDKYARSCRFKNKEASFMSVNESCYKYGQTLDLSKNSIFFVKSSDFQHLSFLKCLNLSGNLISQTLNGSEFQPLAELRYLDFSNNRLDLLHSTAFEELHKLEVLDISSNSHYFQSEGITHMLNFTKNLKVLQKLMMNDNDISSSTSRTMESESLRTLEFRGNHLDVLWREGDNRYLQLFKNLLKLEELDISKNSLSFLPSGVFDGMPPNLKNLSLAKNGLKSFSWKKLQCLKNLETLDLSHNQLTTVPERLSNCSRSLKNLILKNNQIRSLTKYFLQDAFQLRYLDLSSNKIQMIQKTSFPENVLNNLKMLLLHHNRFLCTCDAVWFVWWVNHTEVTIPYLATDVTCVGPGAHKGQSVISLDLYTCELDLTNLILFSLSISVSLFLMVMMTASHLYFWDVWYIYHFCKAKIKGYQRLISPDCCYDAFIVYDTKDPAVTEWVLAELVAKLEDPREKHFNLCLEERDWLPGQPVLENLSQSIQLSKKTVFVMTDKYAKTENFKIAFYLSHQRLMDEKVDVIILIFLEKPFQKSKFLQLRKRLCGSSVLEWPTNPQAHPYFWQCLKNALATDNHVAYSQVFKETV
Summary of the method: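 In this cell reporter format, test compounds at 0.05 nM-50 μM final incubate 22 h with seeded cells (TLR7 15000, TLR8 20,000 per well). SEAP read-out by HEK-Blue Detection medium yields % inhibition relative to agonist/DMSO and known-inhibitor wells.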

| IC50 (human TLR9) [nM] | IC50 (human TLR7) [nM] | SMILES |
| --- | --- | --- |
| 301 | 468 | CCN1CCC(N2CCC(c3ccc4[nH]c(-c5ccc(OC)c(OC)c5)c(C)c4c3)CC2)CC1 [Example 44, 2-(3,4-dimethoxyphenyl)-5-(1′-ethyl-[1,4′-bipiperidin]-4-yl)-3-methyl-1H-indole] |
| 72 | 86 | CCCCCN1CCC(N2CCC(c3ccc4[nH]c(-c5ccc(OC)c(OC)c5)c(C)c4c3)CC2)CC1 [Example 55, 2-(3,4-dimethoxyphenyl)-3-methyl-5-(1′-pentyl-[1,4′-bipiperidin]-4-yl)-1H-indole] |
| 11500 | 12300 | COc1ccc(-c2[nH]c3ccc(C4CCN(C(=O)CN5CCC(N(C)C)CC5)CC4)cc3c2C)cc1OC [Example 407, 1-(4-(2-(3,4-dimethoxyphenyl)-3-methyl-1H-indol-5-yl)piperidin-1-yl)-2-(4-(dimethylamino)piperidin-1-yl)ethan-1-one] |
| 550 | 1360 | COc1ccc(-c2[nH]c3ccc(C4CCN(CC5CCCCN5C)CC4)cc3c2C)cc1OC (stereo not shown) [Example 49, 2-(3,4-dimethoxyphenyl)-3-methyl-5-(1-((1-methylpiperidin-2-yl)methyl)piperidin-4-yl)-1H-indole] |
| 435 | 560 | COc1ccc(-c2[nH]c3ccc(C4CCN(C5CC(C)(C)NC(C)(C)C5)CC4)cc3c2C)cc1OC [Example 48, 2-(3,4-dimethoxyphenyl)-3-methyl-5-(2′,2′,6′,6′-tetramethyl-[1,4′-bipiperidin]-4-yl)-1H-indole] |
| 2760 | 1160 | COc1ccc(-c2[nH]c3ccc(C4CCN(C(C)CO)CC4)cc3c2C)cc1OC (stereo not shown) [Example 43, 2-(4-(2-(3,4-dimethoxyphenyl)-3-methyl-1H-indol-5-yl)piperidin-1-yl)propan-1-ol] |
| 195 | 1770 | COc1ccc(-c2[nH]c3ccc(C4CCN(C5CCCN(CC6CC6)CC5)CC4)cc3c2C)cc1OC (stereo not shown) [Example 94, 5-(1-(1-(cyclopropylmethyl)azepan-4-yl)piperidin-4-yl)-2-(3,4-dimethoxyphenyl)-3-methyl-1H-indole] |
| 62 | 1080 | COc1ccc(-c2[nH]c3ccc(C4CCN(C5CCN(CC6CCOC6)CC5)CC4)cc3c2C)cc1OC (stereo not shown) [Example 74] |
| 112 | 24000 | COc1ccc(-c2[nH]c3ccc(C4CCN(C5CCN(CC6CCCC6)CC5)CC4)cc3c2C)cc1OC [Example 65, 5-(1′-(cyclopentylmethyl)-[1,4′-bipiperidin]-4-yl)-2-(3,4-dimethoxyphenyl)-3-methyl-1H-indole] |
| 2280 | 114 | CCN(CC)C(=O)C1CCCN(CC(=O)N2CCC(c3ccc4[nH]c(-c5ccc(OC)c(OC)c5)c(CC(F)(F)F)c4c3)CC2)C1 (stereo not shown) [Example 421, 1-(2-(4-(2-(3,4-dimethoxyphenyl)-3-(2,2,2-trifluoroethyl)-1H-indol-5-yl)piperidin-1-yl)-2-oxoethyl)-N,N-diethylpiperidine-3-carboxamide] |
| 313 | 829 | COc1ccc(-c2[nH]c3ccc(C4CCN(C5CCCN(C)CC5)CC4)cc3c2C)cc1OC (stereo not shown) [Example 91, 2-(3,4-dimethoxyphenyl)-3-methyl-5-(1-(1-methylazepan-4-yl)piperidin-4-yl)-1H-indole] |
| 442 | 1090 | COc1ccc(-c2[nH]c3ccc(C4CCN(C5CCN(CCC(F)(F)F)CC5)CC4)cc3c2C)cc1OC [Example 50, 2-(3,4-dimethoxyphenyl)-3-methyl-5-(1′-(3,3,3-trifluoropropyl)-[1,4′-bipiperidin]-4-yl)-1H-indole] |
| 174 | 238 | COc1ccc(-c2[nH]c3ccc(C4CCN(C5CCN(CC(C)(C)CO)CC5)CC4)cc3c2C)cc1OC [Example 69, 3-(4-(2-(3,4-dimethoxyphenyl)-3-methyl-1H-indol-5-yl)-[1,4′-bipiperidin]-1′-yl)-2,2-dimethylpropan-1-ol] |
| 112 | 163 | COc1ccc(-c2[nH]c3ccc(C4CCN(C5CCN(Cc6cccs6)CC5)CC4)cc3c2C)cc1OC [Example 64, 2-(3,4-dimethoxyphenyl)-3-methyl-5-(1′-(thiophen-2-ylmethyl)-[1,4′-bipiperidin]-4-yl)-1H-indole] |
| 172 | 147 | COc1ccc(-c2[nH]c3ccc(C4CCN(C5CCN(Cc6ccco6)CC5)CC4)cc3c2C)cc1OC [Example 76, 2-(3,4-dimethoxyphenyl)-5-(1′-(furan-2-ylmethyl)-[1,4′-bipiperidin]-4-yl)-3-methyl-1H-indole] |
| 5250 | 3860 | COc1ccc(-c2[nH]c3ccc(C4CCN(C(=O)CN5CCCN(C)CC5)CC4)cc3c2C)cc1OC [Example 410, 1-(4-(2-(3,4-dimethoxyphenyl)-3-methyl-1H-indol-5-yl)piperidin-1-yl)-2-(4-methyl-1,4-diazepan-1-yl)ethan-1-one] |
| 397 | 931 | CCN1CCCC(N2CCC(c3ccc4[nH]c(-c5ccc(OC)c(OC)c5)c(C)c4c3)CC2)CC1 (stereo not shown) [Example 97, 2-(3,4-dimethoxyphenyl)-5-(1-(1-ethylazepan-4-yl)piperidin-4-yl)-3-methyl-1H-indole] |
| 268 | 230 | COc1ccc(-c2[nH]c3ccc(C4CCN(C5CCN(CC(O)CO)CC5)CC4)cc3c2C)cc1OC (stereo not shown) [Example 52, 3-(4-(2-(3,4-dimethoxyphenyl)-3-methyl-1H-indol-5-yl)-[1,4′-bipiperidin]-1′-yl)propane-1,2-diol] |
| 1450 | 79 | CCN(CC)C(=O)C1CCCN(CC(=O)N2CCC(c3ccc4[nH]c(-c5ccc(OC)c(OC)c5)c(CC(F)(F)F)c4c3)CC2)C1 (stereo not shown) [Example 418, 1-(2-(4-(2-(3,4-dimethoxyphenyl)-3-(2,2,2-trifluoroethyl)-1H-indol-5-yl)piperidin-1-yl)-2-oxoethyl)-N,N-diethylpiperidine-3-carboxamide] |
| 88 | 288 | COc1ccc(-c2[nH]c3ccc(C4CCN(C5CCN(C6CCCCC6)CC5)CC4)cc3c2C)cc1OC [Example 68, 5-(1′-cyclohexyl-[1,4′-bipiperidin]-4-yl)-2-(3,4-dimethoxyphenyl)-3-methyl-1H-indole] |
